Data: ChEMBL document CHEMBL1777691, “Structure based design of novel inhibitors for histidinol dehydrogenase from Geotrichum candidum” (Bioorg Med Chem Lett, 2010)

Experiment: Inhibition of Geotrichum candidum Histidinol dehydrogenase

SMILES	IC50
COC(=O)C1Cc2c(Cl)ncn2C(=O)N1 (stereo not drawn)	122 µM
O=C(O)CCc1c[nH]cn1	3.17 µM
COC(=O)NC(Cc1cncn1C)C(=O)OC (stereo not drawn)	10.6 µM
CCOC(=O)NC(Cc1cn(C)cn1)C(=O)OC (stereo not drawn)	29.3 µM

Further lines, results first:

IC50	SMILES
5.2 µM	COC(=O)CCc1c[nH]cn1
58.7 µM	O=C(O)C1Cc2c(I)nc(I)n2C(=O)N1 (stereo not drawn)
3.56 µM	O=C(O)C1Cc2cncn2C(=O)N1 (stereo not drawn)
24.2 µM	O=C1NCCc2cncn21
